ChEMBL document CHEMBL4334509, “Garcinol and Related Polyisoprenylated Benzophenones as Topoisomerase II Inhibitors: Biochemical and Molecular Modeling Studies” (J Nat Prod, 2019)
Blank lines part the entries; values can stand above or below the molecule they belong to. Activity calls are given as the source filed them. The calls are words filed in the database; no cut-off is given here.

Tests used:
[1] = target: T1, DNA topoisomerase 2-alpha (Homo sapiens, UniProt P11388); assay: Inhibition of human topoisomerase 2alpha-mediated relaxation of supercoiled pSG483 DNA at 12.5 to 200 uM after 30 mins by ethidium bromide staining based agarose gel electrophoresis method
DNA topoisomerase 2-beta [2] = target: T2, DNA topoisomerase 2-beta (Homo sapiens, UniProt Q02880); assay: Inhibition of human topoisomerase 2beta-mediated relaxation of supercoiled pSG483 DNA at 12.5 to 200 uM after 30 mins by ethidium bromide staining based agarose gel electrophoresis method
T2 sequence (Q02880 whole entry): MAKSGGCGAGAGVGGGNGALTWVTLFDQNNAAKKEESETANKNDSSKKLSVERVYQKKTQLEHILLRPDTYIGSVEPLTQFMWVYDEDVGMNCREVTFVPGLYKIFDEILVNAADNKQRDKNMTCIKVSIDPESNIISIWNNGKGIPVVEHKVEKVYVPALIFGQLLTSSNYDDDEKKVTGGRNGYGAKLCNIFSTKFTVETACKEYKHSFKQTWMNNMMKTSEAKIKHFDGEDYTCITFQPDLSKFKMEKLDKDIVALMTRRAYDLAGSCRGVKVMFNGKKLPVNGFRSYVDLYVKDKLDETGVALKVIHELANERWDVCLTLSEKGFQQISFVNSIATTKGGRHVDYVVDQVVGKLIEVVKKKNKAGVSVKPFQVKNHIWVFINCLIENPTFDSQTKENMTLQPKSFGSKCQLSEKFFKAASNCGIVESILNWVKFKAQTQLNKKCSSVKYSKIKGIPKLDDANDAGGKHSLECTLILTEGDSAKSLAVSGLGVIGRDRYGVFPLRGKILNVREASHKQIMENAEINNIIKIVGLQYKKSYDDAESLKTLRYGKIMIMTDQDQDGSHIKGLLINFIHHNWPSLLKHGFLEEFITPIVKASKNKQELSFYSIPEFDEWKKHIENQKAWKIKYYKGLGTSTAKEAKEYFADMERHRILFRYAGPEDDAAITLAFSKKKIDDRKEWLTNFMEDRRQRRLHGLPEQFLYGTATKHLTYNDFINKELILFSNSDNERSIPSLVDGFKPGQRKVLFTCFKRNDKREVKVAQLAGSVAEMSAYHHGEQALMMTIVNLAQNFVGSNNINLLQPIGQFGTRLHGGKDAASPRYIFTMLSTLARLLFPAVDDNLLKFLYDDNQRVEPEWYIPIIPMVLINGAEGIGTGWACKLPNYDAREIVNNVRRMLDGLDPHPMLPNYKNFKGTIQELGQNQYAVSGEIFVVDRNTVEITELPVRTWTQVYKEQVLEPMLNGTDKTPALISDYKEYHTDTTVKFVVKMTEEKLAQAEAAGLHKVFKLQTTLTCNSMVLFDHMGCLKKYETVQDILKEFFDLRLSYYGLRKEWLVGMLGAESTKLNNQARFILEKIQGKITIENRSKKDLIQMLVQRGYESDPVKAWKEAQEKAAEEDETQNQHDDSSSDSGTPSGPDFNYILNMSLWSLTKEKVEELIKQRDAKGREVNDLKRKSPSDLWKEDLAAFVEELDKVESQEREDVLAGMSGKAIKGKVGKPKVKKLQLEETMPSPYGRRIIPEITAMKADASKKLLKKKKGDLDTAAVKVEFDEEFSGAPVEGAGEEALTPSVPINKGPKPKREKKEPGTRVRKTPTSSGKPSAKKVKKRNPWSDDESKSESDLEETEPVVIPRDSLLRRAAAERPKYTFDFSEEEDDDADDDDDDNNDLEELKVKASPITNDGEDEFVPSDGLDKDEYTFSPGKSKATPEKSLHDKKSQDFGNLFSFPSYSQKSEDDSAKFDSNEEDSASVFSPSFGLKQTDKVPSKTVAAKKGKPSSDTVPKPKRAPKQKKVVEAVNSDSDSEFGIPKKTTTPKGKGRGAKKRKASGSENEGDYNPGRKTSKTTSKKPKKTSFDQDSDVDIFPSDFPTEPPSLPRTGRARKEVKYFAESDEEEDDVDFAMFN

[3] = target: T1, DNA topoisomerase 2-alpha; assay: Inhibition of human topoisomerase 2alpha-mediated DNA cleavage at 12.5 to 200 uM using supercoiled pSG483 as substrate after 30 mins by ethidium bromide staining based gel electrophoresis method
DNA topoisomerase 2-beta [4] = target: T2, DNA topoisomerase 2-beta; assay: Inhibition of human topoisomerase 2beta-mediated DNA cleavage at 12.5 to 200 uM using supercoiled pSG483 as substrate after 30 mins by ethidium bromide staining based gel electrophoresis method
[5] = target: T1, DNA topoisomerase 2-alpha; assay: (§1) Mixed-type inhibition of topoisomerase 2alpha ATPase activity (unknown origin) assessed as apparent Vmax per mg protein at 25 uM using salmon sperm DNA as substrate measured every 30 secs for 90 mins in presence of ATP by pyruvate kinase/lactate dehydrogenase enzyme coupled assay (reference value: 136.7 +/- 14.7 mM/min)
DNA topoisomerase 2-beta [6] = target: T2, DNA topoisomerase 2-beta; assay: Inhibition of human topoisomerase 2beta-mediated DNA cleavage assessed as formation of nicking in DNA at 200 uM using supercoiled pSG483 as substrate after 30 mins by ethidium bromide based gel electrophoresis method
[7] = target: T1, DNA topoisomerase 2-alpha; assay: as §1, with “20” for “25”
[8] = target: T1, DNA topoisomerase 2-alpha; assay: Inhibition of human topoisomerase 2alpha-mediated relaxation of supercoiled pSG483 DNA after 30 mins by ethidium bromide staining based agarose gel electrophoresis method
DNA topoisomerase 2-beta [9] = target: T2, DNA topoisomerase 2-beta; assay: Inhibition of human topoisomerase 2beta-mediated relaxation of supercoiled pSG483 DNA after 30 mins by ethidium bromide staining based agarose gel electrophoresis method
[10] = target: T1, DNA topoisomerase 2-alpha; assay: Poison activity at human topoisomerase 2alpha assessed as linear DNA formation at 12.5 to 200 uM after 30 mins by ethidium bromide staining based agarose gel electrophoresis method
DNA = assay: Induction of plasmid DNA (unknown origin) intercalation at 7.81 to 500 uM after 30 mins by ethidium bromide staining based agarose gel electrophoresis method; type: nucleic-acid assay
[11] = target: T1, DNA topoisomerase 2-alpha; assay: as §1, with “50” for “25”
[12] = compound: C=C(C)[C@H](CC=C(C)C)C[C@]12C[C@H](CC=C(C)C)C(C)(C)[C@](CC=C(C)C)(C(=O)C(C(=O)c3ccc(O)c(O)c3)=C1O)C2=O; assay: (§2) Mixed-type inhibition of topoisomerase 2alpha ATPase activity (unknown origin) assessed as apparent Km at 10 uM using salmon sperm DNA as substrate measured every 30 secs for 90 mins in presence of ATP by pyruvate kinase/lactate dehydrogenase enzyme coupled assay (reference value: 0.4 +/- 0.1 mM); conditions: Homo sapiens
[13] = compound: CC(C)=CCC/C(C)=C/C[C@@]12C[C@H](CC=C(C)C)C(C)(C)[C@@](CC=C(C)C)(C(=O)C(C(=O)c3ccc(O)c(O)c3)=C1O)C2=O; assay: as §2; conditions: Homo sapiens
[14] = compound: CC(C)=CCC[C@@]1(C)[C@H](CC=C(C)C)C[C@]2(CC=C(C)C)C(=O)[C@@]1(CC=C(C)C)C(=O)C(C(=O)c1ccc(O)c(O)c1)=C2O; assay: as §2; conditions: Homo sapiens
[15] = compound: C=C(C)[C@H](CC=C(C)C)C[C@]12C[C@H](CC=C(C)C)C(C)(C)[C@](CC=C(C)C)(C(=O)C(C(=O)c3ccc(O)c(O)c3)=C1O)C2=O; assay: (§3) Mixed-type inhibition of topoisomerase 2alpha ATPase activity (unknown origin) assessed as apparent Km at 25 uM using salmon sperm DNA as substrate measured every 30 secs for 90 mins in presence of ATP by pyruvate kinase/lactate dehydrogenase enzyme coupled assay (reference value: 0.4 +/- 0.1 mM); conditions: Homo sapiens
[16] = compound: CC(C)=CCC[C@@]1(C)[C@H](CC=C(C)C)C[C@]2(CC=C(C)C)C(=O)[C@@]1(CC=C(C)C)C(=O)C(C(=O)c1ccc(O)c(O)c1)=C2O; assay: as §3; conditions: Homo sapiens
[17] = compound: C=C(C)[C@H](CC=C(C)C)C[C@]12C[C@H](CC=C(C)C)C(C)(C)[C@](CC=C(C)C)(C(=O)C(C(=O)c3ccc(O)c(O)c3)=C1O)C2=O; assay: Mixed-type inhibition of topoisomerase 2alpha ATPase activity (unknown origin) assessed as apparent Km at 50 uM using salmon sperm DNA as substrate measured every 30 secs for 90 mins in presence of ATP by pyruvate kinase/lactate dehydrogenase enzyme coupled assay (reference value: 0.4 +/- 0.1 mM); conditions: Homo sapiens
[18] = compound: CC(C)=CCC/C(C)=C/C[C@@]12C[C@H](CC=C(C)C)C(C)(C)[C@@](CC=C(C)C)(C(=O)C(C(=O)c3ccc(O)c(O)c3)=C1O)C2=O; assay: (§4) Mixed-type inhibition of topoisomerase 2alpha ATPase activity (unknown origin) assessed as apparent Km at 5 uM using salmon sperm DNA as substrate measured every 30 secs for 90 mins in presence of ATP by pyruvate kinase/lactate dehydrogenase enzyme coupled assay (reference value: 0.4 +/- 0.1 mM); conditions: Homo sapiens
[19] = compound: CC(C)=CCC[C@@]1(C)[C@H](CC=C(C)C)C[C@]2(CC=C(C)C)C(=O)[C@@]1(CC=C(C)C)C(=O)C(C(=O)c1ccc(O)c(O)c1)=C2O; assay: as §4; conditions: Homo sapiens
[20] = compound: CC(C)=CCC/C(C)=C/C[C@@]12C[C@H](CC=C(C)C)C(C)(C)[C@@](CC=C(C)C)(C(=O)C(C(=O)c3ccc(O)c(O)c3)=C1O)C2=O; assay: Mixed-type inhibition of topoisomerase 2alpha ATPase activity (unknown origin) assessed as apparent Km at 20 uM using salmon sperm DNA as substrate measured every 30 secs for 90 mins in presence of ATP by pyruvate kinase/lactate dehydrogenase enzyme coupled assay (reference value: 0.4 +/- 0.1 mM); conditions: Homo sapiens

inhibition [1]: Active
inhibition (DNA topoisomerase 2-beta [2]): Active
inhibition [3]: Active
inhibition (DNA topoisomerase 2-beta [4]): Active
Molecule: CC(C)=CCC[C@@]1(C)[C@H](CC=C(C)C)C[C@@]2(CC=C(C)C)C(=O)c3c(oc4cc(O)c(O)cc4c3=O)[C@]1(CC=C(C)C)C2=O

inhibition [1]: Active
inhibition (DNA topoisomerase 2-beta [2]): Active
inhibition [3]: Active
inhibition (DNA topoisomerase 2-beta [4]): Active
Molecule: CC(C)=CCC[C@@]1(C)[C@H](CC=C(C)C)C[C@]2(CC=C(C)C)C(=O)[C@@]1(CC=C(C)C)C(=O)c1c2oc2cc(O)c(O)cc2c1=O

inhibition [1]: Active
inhibition (DNA topoisomerase 2-beta [2]): Active
inhibition (DNA topoisomerase 2-beta [6]): inactive
Molecule: CC(C)=CCC/C(C)=C/C[C@]12C[C@H](CC=C(C)C)C(C)(C)[C@](CC=C(C)C)(C1=O)c1oc3cc(O)c(O)cc3c(=O)c1C2=O

The next lines start with the molecule.

Molecule: CC(C)=CCC[C@@]1(C)[C@H](CC=C(C)C)C[C@]2(CC=C(C)C)C(=O)[C@@]1(CC=C(C)C)C(=O)C(C(=O)c1ccc(O)c(O)c1)=C2O
inhibition [1]: Active
inhibition (DNA topoisomerase 2-beta [2]): Active
inhibition [3]: Active
inhibition (DNA topoisomerase 2-beta [4]): Active
Vmax(app) [5]: 93 mM/min

Molecule: CC(C)=CCC/C(C)=C/C[C@@]12C[C@H](CC=C(C)C)C(C)(C)[C@@](CC=C(C)C)(C(=O)C(C(=O)c3ccc(O)c(O)c3)=C1O)C2=O
inhibition [1]: Active
inhibition (DNA topoisomerase 2-beta [2]): Active
inhibition [3]: Active
inhibition (DNA topoisomerase 2-beta [4]): Active
Vmax(app) [7]: 53.6 mM/min

Molecule: C=C(C)[C@H](CC=C(C)C)C[C@]12C[C@H](CC=C(C)C)C(C)(C)[C@](CC=C(C)C)(C(=O)C(C(=O)c3ccc(O)c(O)c3)=C1O)C2=O
IC50 [8]: 101 µM
IC50 (DNA topoisomerase 2-beta [9]): 101 µM
Activity [10]: inactive
Activity (DNA): inactive
Vmax(app) [5]: 94 mM/min
Vmax(app) [11]: 84.7 mM/min

B1: DNA topoisomerase 2-alpha (Homo sapiens), P11388 (protein)
chain: MEVSPLQPVNENMQVNKIKKNEDAKKRLSVERIYQKKTQLEHILLRPDTYIGSVELVTQQMWVYDEDVGINYREVTFVPGLYKIFDEILVNAADNKQRDPKMSCIRVTIDPENNLISIWNNGKGIPVVEHKVEKMYVPALIFGQLLTSSNYDDDEKKVTGGRNGYGAKLCNIFSTKFTVETASREYKKMFKQTWMDNMGRAGEMELKPFNGEDYTCITFQPDLSKFKMQSLDKDIVALMVRRAYDIAGSTKDVKVFLNGNKLPVKGFRSYVDMYLKDKLDETGNSLKVIHEQVNHRWEVCLTMSEKGFQQISFVNSIATSKGGRHVDYVADQIVTKLVDVVKKKNKGGVAVKAHQVKNHMWIFVNALIENPTFDSQTKENMTLQPKSFGSTCQLSEKFIKAAIGCGIVESILNWVKFKAQVQLNKKCSAVKHNRIKGIPKLDDANDAGGRNSTECTLILTEGDSAKTLAVSGLGVVGRDKYGVFPLRGKILNVREASHKQIMENAEINNIIKIVGLQYKKNYEDEDSLKTLRYGKIMIMTDQDQDGSHIKGLLINFIHHNWPSLLRHRFLEEFITPIVKVSKNKQEMAFYSLPEFEEWKSSTPNHKKWKVKYYKGLGTSTSKEAKEYFADMKRHRIQFKYSGPEDDAAISLAFSKKQIDDRKEWLTNFMEDRRQRKLLGLPEDYLYGQTTTYLTYNDFINKELILFSNSDNERSIPSMVDGLKPGQRKVLFTCFKRNDKREVKVAQLAGSVAEMSSYHHGEMSLMMTIINLAQNFVGSNNLNLLQPIGQFGTRLHGGKDSASPRYIFTMLSSLARLLFPPKDDHTLKFLYDDNQRVEPEWYIPIIPMVLINGAEGIGTGWSCKIPNFDVREIVNNIRRLMDGEEPLPMLPSYKNFKGTIEELAPNQYVISGEVAILNSTTIEISELPVRTWTQTYKEQVLEPMLNGTEKTPPLITDYREYHTDTTVKFVVKMTEEKLAEAERVGLHKVFKLQTSLTCNSMVLFDHVGCLKKYDTVLDILRDFFELRLKYYGLRKEWLLGMLGAESAKLNNQARFILEKIDGKIIIENKPKKELIKVLIQRGYDSDPVKAWKEAQQKVPDEEENEESDNEKETEKSDSVTDSGPTFNYLLDMPLWYLTKEKKDELCRLRNEKEQELDTLKRKSPSDLWKEDLATFIEELEAVEAKEKQDEQVGLPGKGGKAKGKKTQMAEVLPSPRGQRVIPRITIEMKAEAEKKNKKKIKNENTEGSPQEDGVELEGLKQRLEKKQKREPGTKTKKQTTLAFKPIKKGKKRNPWSDSESDRSSDESNFDVPPRETEPRRAATKTKFTMDLDSDEDFSDFDEKTDDEDFVPSDASPPKTKTSPKLSNKELKPQKSVVSDLEADDVKGSVPLSSSPPATHFPDETEITNPVPKKNVTVKKTAAKSQSSTSTTGAKKRAAPKGTKRDPALNSGVSQKPDPAKTKNRRKRKPSTSDDSDSNFEKIVSKAVTSKKSKGESDDFHMDFDSAVAPRAKSVRAKKPIKYLEESDEDDLF
Km [12]: 300 µM
Km [13]: 900 µM
Km [14]: 800 µM
Km [15]: 700 µM
Km [16]: 1000 µM
Km [17]: 800 µM
Km [18]: 600 µM
Km [19]: 600 µM
Km [20]: 1600 µM
